Results: patent US20260191863A1, “PYRROLOPYRIMIDINE COMPOSITIONS FOR TREATMENT OF ITK MEDIATED CONDITIONS” (ACLARIS THERAPEUTICS, INC., priority 2022, published 2026)
Several values for one entry are separate records, joined by “and”; a condition that tells them apart may be missing. Identical values can stand only once. Entries after “also recorded” stand apart in the source; their conditions may differ. Like-named read-outs stand apart in the source and are kept apart here.

Assays:
[1] = tested on: colitis (mouse T cell transfer model); assay: Mouse T cell transfer model of inflammatory bowel disease; assay type: in vivo
Text: The study evaluated Compound I dose dependent ability to inhibit inflammation in the mouse T cell transfer model of inflammatory bowel disease.

ITK & JAK (IFNγ protein) = assay: SAD ex vivo PD: αCD3/IL15 stimulated IFNγ protein production; assay type: in vivo, human; settings: for EC50: Homo sapiens; for Inhibition of dual ITK and JAK3-stimulated IFNγ protein production: SAD higher dose cohorts
Text: (§1) Summary of SAD data: FIGS. 4-8 and 9-13 show the SAD dose response, SAD exposure response, and SAD calculated response at Cmax by dose respectively for ITK (IL2 mRNA), ITK (IFNγ mRNA), JAK3 (pSTAT5, lymph), JAK3 (pSTAT5, CD3′ T), and ITK & JAK (IFNγ protein). Clinical and pre-clinical IC50 data for ITK (IL2 mRNA), ITK (IFNγ mRNA), JAK3 (pSTAT5, lymph), JAK3 (pSTAT5, CD3^+ T), and ITK & JAK (IFNγ protein) from the SAD study is shown in table 4.

ITK and JAK3 = assay: MAD exploratory PD, all biomarker readouts; assay type: in vivo, human
Method: Exploratory Endpoints—Mean change from baseline in cellular, extracellular (secreted), and/or message markers of inflammation.
Results: 57 subjects completed the MAD study. […] Peak concentrations were reached within 2 hours after dosing.

[2] = tested on: IL15 stimulated IFNγ protein; assay: Pre-clinical human whole blood IL-15/IFNγ (5 hr); assay type: cell-based
ITK (IFNγ mRNA) = assay: SAD ex vivo PD: αCD3/αCD28 stimulated IFNγ mRNA production; assay type: in vivo; settings: Homo sapiens; SAD study; read-out: Clinical EC50
Text: Secondary Endpoints—Compound I plasma concentrations. Mean change from baseline in ex vivo stimulated pSTAT5 and pSTAT1 (signal transducer and activator of transcription); and in ex vivo stimulated IFNγ mRNA (interferon gamma messenger ribonucleic acid).
as §1

JAK1/2 = assay: Cell IC50 JAK1/2 hPBMC IFNγ/pSTAT1; assay type: cell-based, human
[3] = 13 week toxicology and toxicokinetic study in rats; assay type: in vivo, rat
Text: Purpose: Evaluation of toxicity and toxicokinetic (TK) for Compound I, following daily dosing for 13 weeks.

[4] = Phase 1 single ascending dose (SAD) study: pharmacokinetics, food effect, formulation bridging; assay type: in vivo, human; settings: for AUC(0-t): read-out: AUC0-24; for Vd/F: read-out: Vz/F
Method: Type of Study—This was an FIH, randomized, observer-blind, placebo-controlled study designed to evaluate the safety, tolerability, PK, and PD of Compound I in healthy subjects. The study consisted of: single ascending dose (SAD) cohorts (1-80 mg/day) plus formulation bridging and food effect (FE) cohorts.
Approximately 64 male and female subjects were enrolled into 8 planned cohorts in the SAD study. In each cohort, a total of 8 subjects were randomized to receive a single oral capsule dose of Compound I (n=6) or placebo (n=2) in the morning with approximately 240 mL of water after an overnight fast of at least 8 hours.
Cohort 4 was an FE (food effect) cohort where subjects received Compound I capsules or placebo, fasted on Day 1 and Compound I or placebo after a high-fat, high-calorie breakfast on Day 8 after a 7-day washout period.
Cohort 5 was a formulation bridging cohort where subjects will receive Compound I capsules or placebo on Day 1 and Compound I tablets or placebo on Day 8 after a 7-day washout period.
The dosage form of Compound I in Cohorts 6, 7, and 8 were capsules and the subjects will receive a single oral dose of Compound I (n=6) capsules or placebo (n=2) on Day 1 after an overnight fast of at least 8 hours.

JAK3 (pSTAT5, CD3+ T) = assay: Pre-clinical IL2 stimulated pSTAT5 in CD3+ T cells; assay type: cell-based; settings: Homo sapiens, T-cell
[5] = both sexes, human, in vivo, po, 1 mg, single oral dose 1 mg, capsule, fasted
[6] = both sexes, human, in vivo, po, 3 mg, single oral dose 3 mg, capsule, fasted
[7] = both sexes, human, in vivo, po, 5 mg, single oral dose 5 mg, capsule, fasted
[8] = both sexes, human, in vivo, po, 15 mg, single oral dose 15 mg, capsule, fasted
[9] = both sexes, human, in vivo, po, 15 mg, single oral dose 15 mg, capsule, fed (high-fat, high-calorie breakfast)
[10] = both sexes, human, in vivo, po, 25 mg, single oral dose 25 mg, capsule, fasted
[11] = both sexes, human, in vivo, po, 25 mg, single oral dose 25 mg, tablet
[12] = both sexes, human, in vivo, po, 50 mg, single oral dose 50 mg, capsule, fasted
[13] = both sexes, human, in vivo, po, 80 mg, single oral dose 80 mg, capsule, fasted
[14] = single oral dose 15 mg, capsule, fasted
[15] = single oral dose 15 mg, capsule, fed (high-fat, high-calorie breakfast)

C=CC(=O)N1C[C@H](Nc2ncnc3[nH]cc([C@H]4CC4(F)F)c23)CC[C@@H]1C [Compound I, 1-((2S,5R)-5-((5-((R)-2,2-difluorocyclopropyl)-7H-pyrrolo[2,3-d]pyrimidin-4-yl)amino)-2-methylpiperidin-1-yl)prop-2-en-1-one]
Colitis [1]: inhibited colitis
Effect compared with anti-IL12 (P40) [1]: The effect was greater than anti-IL12 (P40)
Inflammation in proximal and distal colon, and ileum [1]: dose dependently decreased inflammation
EC50 (ITK & JAK (IFNγ protein); SAD study, read-out: Clinical EC50): 7.3 nM
EC50 (ITK & JAK (IFNγ protein); read-out: SAD EC50): 0.0026 µg/mL and 7.3 nM
Inhibition of dual ITK and JAK3-stimulated IFNγ protein production (ITK & JAK (IFNγ protein)): Near complete inhibition
Inhibition of dual ITK and JAK3-stimulated IFNγ protein production (ITK & JAK (IFNγ protein); maintained for 12 hours): > 50%
Inhibition of biomarker readouts, comparison of regimens (ITK and JAK3; 10 mg TID, 15 mg BID, 30 mg BID doses): inhibited biomarker readouts to a similar extent
Change of MAD Day 1 EC50 vs Days 7 & 15 EC50 (ITK and JAK3; MAD): No significant change
Modulation of all PD biomarker readouts (ITK and JAK3; MAD): dose- and time-dependent modulation; also recorded: dose and time dependent modulation
Inhibition of biomarker readouts (ITK and JAK3; MAD, 15-40 mg BID, across the dosing intervals): 50-90%
Inhibition of biomarker readouts (ITK and JAK3; MAD, 2 hours post treatment, doses of 15 mg to 80 mg): Near-complete inhibition
Potency relative to Ritlecitinib, IL-15/IFNγ (5 hr) [2]: (6.5 fold*)
IC50 ([2]; Homo sapiens): 0.0029 µg/mL and 8 nM
EC50 ([2]; Homo sapiens, 5 h, read-out: Human Whole Blood EC50, IL-15/IFNγ (5 hr)): 8 nM
EC50 (ITK (IFNγ mRNA)): 12.7 nM
Cell IC50, JAK1/2 hPBMC IFNγ/pSTAT1 (JAK1/2): Inactive
Nephrotoxicity ([3]; Compound I toxicity studies): no evidence of nephrotoxicity
Cmax ([3]; in vivo, 80 mg/kg, rat, NOAEL 80 mpk): 13800 ng/mL
AUC(0-t) ([3]; in vivo, 80 mg/kg, rat, NOAEL 80 mpk, read-out: AUC0-24 h at NOAEL): 45000 ng·h/mL
Adverse effects ([3]; rat, 5, 20, 80 mpk, 13 weeks): No adverse effects observed
No observed adverse effect level ([3]; rat, daily dosing 13 weeks): 80 mpk
Difference in PK parameters between capsule and tablet formulation ([4]; 25 mg single dose): No significant difference
Plasma concentration dose dependence ([4]; SAD): increased in a dose-dependent manner
Time to peak plasma concentration after dosing ([4]; SAD): ≤ 2 h
Exposure dose proportionality (Cmax and AUC) ([4]; SAD, 1-80 mg single dose): dose-proportional
half-life ([4]; both sexes, human, in vivo, oral, SAD, 1-80 mg single dose, read-out: Half-life (range across doses)): 1.5 to 2.5 h
Tmax ([4]; both sexes, human, in vivo, oral, SAD, 1-80 mg single dose, read-out: Tmax (range across doses)): 0.7 to 1.2 h
AUC(0-inf) [4, 5]: 5.95 ng·h/mL
Cmax [4, 5]: 2.71 ng/mL
AUC(0-t) [4, 5]: 5.95 ng·h/mL
half-life ([4]; both sexes, human, in vivo, po, 1 mg, single oral dose 1 mg, capsule, fasted, read-out: T1/2 (converted)): 1.51 h
Tmax ([4]; both sexes, human, in vivo, po, 1 mg, single oral dose 1 mg, capsule, fasted, read-out: Tmax): 0.674 h
Vd/F [4, 5]: 384 L
AUC(0-inf) [4, 6]: 15.8 ng·h/mL
Cmax [4, 6]: 5.9 ng/mL
AUC(0-t) [4, 6]: 15.4 ng·h/mL
half-life ([4]; both sexes, human, in vivo, po, 3 mg, single oral dose 3 mg, capsule, fasted, read-out: T1/2 (converted)): 1.53 h
Tmax ([4]; both sexes, human, in vivo, po, 3 mg, single oral dose 3 mg, capsule, fasted, read-out: Tmax): 0.757 h
Vd/F [4, 6]: 419 L
AUC(0-inf) [4, 7]: 33.5 ng·h/mL
Cmax [4, 7]: 11.9 ng/mL
AUC(0-t) [4, 7]: 33.1 ng·h/mL
half-life ([4]; both sexes, human, in vivo, po, 5 mg, single oral dose 5 mg, capsule, fasted, read-out: T1/2 (converted)): 1.53 h
Tmax ([4]; both sexes, human, in vivo, po, 5 mg, single oral dose 5 mg, capsule, fasted, read-out: Tmax): 1.07 h
Vd/F [4, 7]: 331 L
AUC(0-inf) [4, 8]: 96.7 ng·h/mL
Cmax [4, 8]: 31.5 ng/mL
AUC(0-t) [4, 8]: 95.7 ng·h/mL
half-life ([4]; both sexes, human, in vivo, po, 15 mg, single oral dose 15 mg, capsule, fasted, read-out: T1/2 (converted)): 1.61 h
Tmax ([4]; both sexes, human, in vivo, po, 15 mg, single oral dose 15 mg, capsule, fasted, read-out: Tmax): 1 h
Vd/F [4, 8]: 360 L
AUC(0-inf) [4, 9]: 93.9 ng·h/mL
Cmax [4, 9]: 17.6 ng/mL
AUC(0-t) [4, 9]: 105 ng·h/mL
half-life ([4]; both sexes, human, in vivo, po, 15 mg, single oral dose 15 mg, capsule, fed (high-fat, high-calorie breakfast), read-out: T1/2 (converted)): 1.73 h
Tmax ([4]; both sexes, human, in vivo, po, 15 mg, single oral dose 15 mg, capsule, fed (high-fat, high-calorie breakfast), read-out: Tmax): 5 h
Vd/F [4, 9]: 399 L
AUC(0-inf) [4, 10]: 154 ng·h/mL
Cmax [4, 10]: 47 ng/mL
AUC(0-t) [4, 10]: 153 ng·h/mL
half-life ([4]; both sexes, human, in vivo, po, 25 mg, single oral dose 25 mg, capsule, fasted, read-out: T1/2 (converted)): 1.57 h
Tmax ([4]; both sexes, human, in vivo, po, 25 mg, single oral dose 25 mg, capsule, fasted, read-out: Tmax): 1.35 h
Vd/F [4, 10]: 366 L
AUC(0-inf) [4, 11]: 199 ng·h/mL
Cmax [4, 11]: 63.6 ng/mL
AUC(0-t) [4, 11]: 197 ng·h/mL
half-life ([4]; both sexes, human, in vivo, po, 25 mg, single oral dose 25 mg, tablet, read-out: T1/2 (converted)): 1.75 h
Tmax ([4]; both sexes, human, in vivo, po, 25 mg, single oral dose 25 mg, tablet, read-out: Tmax): 1.07 h
Vd/F [4, 11]: 317 L
AUC(0-inf) [4, 12]: 428 ng·h/mL
Cmax [4, 12]: 143 ng/mL
AUC(0-t) [4, 12]: 426 ng·h/mL
half-life ([4]; both sexes, human, in vivo, po, 50 mg, single oral dose 50 mg, capsule, fasted, read-out: T1/2 (converted)): 1.84 h
Tmax ([4]; both sexes, human, in vivo, po, 50 mg, single oral dose 50 mg, capsule, fasted, read-out: Tmax): 1.24 h
Vd/F [4, 12]: 310 L
AUC(0-inf) [4, 13]: 676 ng·h/mL
Cmax [4, 13]: 196 ng/mL
AUC(0-t) [4, 13]: 675 ng·h/mL
half-life ([4]; both sexes, human, in vivo, po, 80 mg, single oral dose 80 mg, capsule, fasted, read-out: T1/2 (converted)): 2.53 h
Tmax ([4]; both sexes, human, in vivo, po, 80 mg, single oral dose 80 mg, capsule, fasted, read-out: Tmax): 1.22 h
Vd/F [4, 13]: 432 L
Effect of high-calorie, high-fat meal on AUC, bioavailability, T1/2 ([4]; single 15 mg dose): no significant effect
Reduction of Cmax by a high-calorie, high-fat meal ([4]; single 15 mg dose): 31%
CL/F ([4]; single oral dose 1 mg, capsule, fasted): 168 L/h
CL/F ([4]; single oral dose 3 mg, capsule, fasted): 190 L/h
CL/F ([4]; single oral dose 5 mg, capsule, fasted): 149 L/h
CL/F [4, 14]: 155 L/h
Tmax [4, 14]: 1.09 h
CL/F [4, 15]: 160 L/h
Tmax [4, 15]: 4.99 h
CL/F ([4]; single oral dose 25 mg, capsule, fasted): 162 L/h
CL/F ([4]; single oral dose 25 mg, tablet): 126 L/h
CL/F ([4]; single oral dose 50 mg, capsule, fasted): 117 L/h
CL/F ([4]; single oral dose 80 mg, capsule, fasted): 118 L/h
PK profile (linearity, absorption) ([4]; up to 80 mg single dose): PK was linear and absorption was fast
EC50 (JAK3 (pSTAT5, CD3+ T)): 140 ± 49.3 nM
